Source: publication PMC10010340, “The Wnt Pathway Inhibitor RXC004 Blocks Tumor Growth and Reverses Immune Evasion in Wnt Ligand–dependent Cancer Models” (Cancer Research Communications, 2022)

What was measured:
[1] = tested on: β-catenin protein levels in L-Wnt3a cells; experiment: β-catenin expression by flow cytometry; format: cell-based, mouse; settings: 100 nmol/L, 24 hours
Procedure: (§1) Reporter Assay: Media from L-Wnt3a cells (L cells overexpressing Wnt3a; ATCC CRL-2647) treated with a concentration-series of RXC004, was incubated with the LEADING LIGHT Wnt Reporter Cell Line (Enzo life sciences; ENZ-61002-0001). Luciferase was detected using the ONE-Glo Luciferase Assay System (Promega E6120), data were normalized to DMSO-treated controls and IC50 values determined. Recombinant Wnt3a (Bio-Techne #1324-WN-010) was used at 1 μg/mL. β-catenin expression: L-Wnt3a cells were treated with RXC004 (100 nmol/L) or DMSO (0.1%) for 24 hours. Cellular β-catenin protein levels were quantified by staining with anti-β-catenin (AlexaFluor488, BD 562505) and assessment using an Agilent Novocyte-3000 flow cytometer.

[2] = tested on: functional Wnt production from mouse L-Wnt3a cells; experiment: Wnt reporter assay (L-Wnt3a conditioned media on LEADING LIGHT Wnt Reporter Cell Line); format: cell-based
Procedure: as §1

MDR1 = experiment: Permeability in MDR1-MDCKII cells; format: in vitro ADME; settings: dog, MDCK-MDR1, 10 μmol/L, 2 hours
Procedure: (§2) Permeability of RXC004 was assessed in MDR1-MDCKII (Netherlands Cancer Institute) and Caco-2 cells (Merck Life Sciences). RXC004 (10 μmol/L) was added to either apical or basolateral chamber for 2 hours at 37°C, then an aliquot from the opposite side of the monolayer was removed and quantified by LC/MS-MS. Apparent permeability (Papp) was calculated according to standard practice ([20]).

MDR1-MDCKII cells = experiment: Permeability in MDR1-MDCKII cells; format: in vitro ADME; settings: MDR1-MDCKII cells
Procedure: as §2

SNU-1411 xenograft = experiment: Pharmacokinetic/pharmacodynamic analysis in SNU-1411/NOD-SCID mice, 7 days; format: in vivo, mouse (NOD-SCID)
Procedure: (§3) To explore dose–response effects in vivo, SNU-1411 (1 × 10^7 cells) were implanted into NOD-SCID mice subcutaneously at Axis Bioservices. Animals were randomized into the indicated groups and oral dosing of RXC004 was initiated when tumors reached approximately 200 mm^3. Tumor volume measurements were taken at day 19, n ≥9 per group. Pharmacokinetic/pharmacodynamic analysis in SNU1411/NOD-SCID mice was performed in a separate study at Axis Biosciences, with tissue and plasma extracted for assessments after 7 days of RXC004 dosing. Tumor was divided into two sections; one section snap frozen and the other processed by FFPE. RXC004 levels were determined in snap frozen tumor and blood samples by LC/MS-MS. Expression analysis of the indicated genes was performed on snap frozen tumor as described above. Serial FFPE tumor sections were stained with H&E, anti-Ki67 (Abcam #Ab15580) or the dual mucin stain Alcian-blue/periodic acid shift (AB-PAS) at Histologix. IHC images were quantified using HALO software and modules (Indica Labs). The AB-PAS images were analyzed with the area quantification module on tumor area. A classifier was trained to detect differentiated and nondifferentiated tumor areas in RXC004-treated tumors using the AB-PAS–stained slides. Image registration was used to assign annotations from AB-PAS images to Ki67 images. The Ki67 images were analyzed with the multiplex IHC module and number of Ki67-positive cells were determined per mm^2 of total or differentiated tumor area.

[3] = as above; format: in vivo, mouse (NOD-SCID); settings: NOD-SCID, mouse, plasma, oral; 20 ng/mL equivalent to 10× IC50; read-out: total plasma concentration equivalent to free IC50
Procedure: as §3

B16F10 tumors = experiment: B16F10/C57BL/6 syngeneic model; format: in vivo, mouse (C57BL/6)
Procedure: B16F10/C57BL/6 syngeneic model was performed at Axis Bioservices. Mouse B16F10 cells (2 × 10^5) were subcutaneously implanted in flanks of the immunocompetent male C57BL/6 mice. Treatment was initiated at day 3, once tumors were palpable with RXC004 being dosed orally as indicated. Anti-programmed cell death protein-1 (PD-1; RMP1-14, BioXcell) or isotype control was dosed at 100 μg per dose intraperitoneal, twice weekly. Anti-CTLA-4 antibody (BioXCell BP0131) or isotype control was dosed intraperitoneally every 3 days at 100 μg per dose. Separate experiments were performed for tumor volume and flow cytometry analysis. Tumor volume was assessed in each animal and/or group until prespecified termination conditions and/or study endpoint were reached. For flow cytometry, tumors were resected at day 19, 2 hours after final dose, weighed and digested into a single-cell suspension using collagenase (Liberase, Roche) and DNAase and passed through a strainer prior to flow cytometry analysis on FACS Canto II apparatus using Flow JO software. Single and fluorescence minus one stains were used for compensation setup and gating controls respectively. A myeloid analysis panel included Zombie viability dye (BioLegend #423106), CD11b (BioLegend #101228), CD45, Ly6C, and Ly6G (BD Biosciences #563891, #562727, #551460). Myeloid myeloid-derived suppressor cells (MDSC) were gated as CD45^+CD11b^+ Ly6G-Ly6C^high and polymorphonuclear MDSCs were gated as CD45^+CD11b^+ Ly6G^+Ly6C^med ([21]). For gene expression analysis, tumors were snap frozen, total RNA was extracted and mRNA expression levels for various genes analyzed using the Nanostring nCounter Mouse PanCancer IO360 Codeset.

Which β-catenin protein levels [1] does the source give for `Cc1c(-c2ccnc(C(F)(F)F)c2)ncn1CC(=O)Nc1ccc(-c2cnccn2)cn1` [RXC004, 2-[5-methyl-4-[2-(trifluoromethyl)-4-pyridyl]imidazol-1-yl]-N-(5-pyrazin-2-yl-2-pyridyl)acetamide] here?
Its β-catenin protein levels is “reduces β-catenin protein levels in L-Wnt3a cells back to baseline”.

And the IC50 ([2]; Mus musculus, L Wnt-3A, L-Wnt3a cells treated with concentration-series, read-out: IC50, β-catenin responsive luciferase reporter activated by conditioned media)?
Its IC50 is 0.064 nM.

What about the “effect on downstream Wnt signaling (rescue by recombinant Wnt3a)” value ([2]; recombinant Wnt3a 1 μg/mL) of the same molecule?
Its value is “no effect on downstream Wnt signaling”.

What about the Papp A→B at 2 h, 10 μmol/L (MDR1; apical to basolateral, read-out: MDCK PappA-B) of the same molecule?
Its Papp A→B at 2 h, 10 μmol/L is 15 ×10⁻⁶ cm/s.

What about the Papp B→A at 2 h, 10 μmol/L (MDR1; basolateral to apical, read-out: MDCK PappB-A) of the same molecule?
The Papp B→A at 2 h, 10 μmol/L was 51.9 ×10⁻⁶ cm/s.

And the efflux (MDR1-MDCKII cells)?
Its efflux is “some evidence of efflux in MDR1-MDCKII cells”.

And the “c-Myc gene expression in tumor” value (SNU-1411 xenograft; 1.5 or 5 mg/kg once daily, 7 days)?
Its value is “Inhibition of c-Myc gene expression in tumor”.

What about the “tumor differentiation and mucin levels (Alcian-blue/PAS)” value (SNU-1411 xenograft; intermediate effects at 1.5 mg/kg once daily, stronger at 5 mg/kg once daily) of the same molecule?
Its value is “increased tumor differentiation and increased mucin levels”.

And the “dose proportionality of levels in plasma and tumor” value (SNU-1411 xenograft; oral 1.5 or 5 mg/kg once daily, 7 days)?
Its value is “good dose proportionality”.

What about the “Ki67-positive cells in tumor” value (SNU-1411 xenograft; total tumor area, more significantly in differentiated tumor) of the same molecule?
The value was “Ki67-positive cells were reduced”.

And the IC50 [3]?
The IC50 was 2 ng/mL.

And the survival hazard ratio (B16F10 tumors; 5 mg/kg QD versus vehicle, P <0.0001, Log-rank test)?
Its survival hazard ratio is 0.27.

And the survival (B16F10 tumors; 5 mg/kg once daily)?
Its survival is “significantly increased survival”.

And the “tumor expression of CXCL9” value (B16F10 tumors; 5 mg/kg once daily)?
Its value is “increased tumor expression of the chemokine CXCL9”.

And the “tumor-associated CD45+ immune cells (Nanostring)” value (B16F10 tumors; 5 mg/kg once daily)?
Its value is “significantly increased the overall tumor-associated CD45^+ immune cells”.

What about the “circulating MDSC” value (B16F10 tumors; 5 mg/kg once daily, day 19) of the same molecule?
The value was “concomitant increase in circulating MDSC”.

What about the “tumor-associated MDSCs” value (B16F10 tumors; 5 mg/kg once daily, day 19) of the same molecule?
Its value is “significantly reduced tumor-associated MDSCs”.

And the “tumor volume / tumor growth” value (B16F10 tumors; RXC004 5 mg/kg once daily, anti-PD-1 100 μg per dose twice a week)?
Its value is “significant tumor growth inhibition”.
